# Data as given in patent publication US5863716A, “Treatment of plasmodium” (The Leland Stanford Junior University Board of Trustees, priority 1997, dated 1999).
# Experiments:
# [1] = system: sphingomyelin synthase; assay: Inhibition of plasmodial sphingomyelin biosynthesis in intact infected erythrocytes (C6-NBD-ceramide to C6-NBD-sphingomyelin, TLC); format: cell-based, Plasmodium falciparum
# Procedure: 1×10^8 infected cells 24 h after invasion were washed serum-free in RPMI 1640 and preincubated for thirty min at 37° C. in 1 ml of RPMI 1640 containing 0-5 μM or 0-500 μM of PPMP. (C6-NBD-ceramide (N-[7-(4-nitrobenzo-2-oxa-1,3-diazide)]-6-aminocaproyl-D-erythro-sphingosine) was added to each sample at a final concentration of 5 μM, the samples further incubated for 30 min at 37° C. and cellular lipids extracted. C6-NBD-sphingomyelin was resolved by TLC and quantitated by fluorescence spectrophotometry as described previously. Bligh, E. G. and Dyer, W. Y. (1959) A rapid method for total lipid extraction and purification., Can. J. Biochem. Physiol. 37: 911-917. Haldar, K., Uyetake, L., Ahori, N., Elmendorf, H. G. and Lu, W-1. (1991) The accumulation and metabolism of a fluorescent ceramide derivative in Plasmodium falciparum--infected erythrocytes., Mo. Biochem. Parasitol. 49: 143-156. Elmendorf, H. G. and Haldar, K. (1994) Plasmodium falciparum exports the Golgi marker sphingomyelin synthase into a tubovesicular network in the cytoplasm of mature erythrocytes., J. Cell Biol. 124: 449-462. Each value obtained represented the mean of triplicate determinations from five experiments. The arrow bars indicate the standard deviations. The results are depicted in FIG. 1.
# (§1) P. falciparum strain FCB was used for all experiments and cultured in vitro in according to a modification of the method of Trager and Jensen left off. Trager, W. and Jensen, J. B. (1976) Human malaria in continuous culture., Science (Wash. D.C.) 193: 673-675 Haldar, K., Ferguson, M. A. J. and Cross, G. A. M. (1985) Acylation of a Plasmodium falciparum merozoite surface antigen via sn-1, 2-diacyl glycerol. J. Biol. Chem. 260; 4969-4974. The culture medium contained RPMI 1640 supplemented with 25 Mm hepes, Ph 7.4/11 […] glucose/92 μM hypoxanthine/0.18% sodium bicarbonate/25 μM gentamicin and 10% AB^+ human sera. The parasites were grown in A^+ erythrocytes at 2.5-5% hematocrit. Parasite cultures were synchronized by separation of the early and late stages on a Percoll gradient. The subsequent reincubation of these stages in culture were used to obtain cells 12-24 h in the life cycle. Inhibition of sphingomyelin biosynthetic activity using 5 μM of the various compounds was carried out as described in Example 1. 5 μM of the various compounds were added to 0-12 h rings in the culture medium and cells were examined by Giemsa staining after 24 h.
# [2] = system: P. falciparum schizonts and merozoites; assay: Schizont maturation and merozoite invasion in the presence of drug; format: cell-based, Plasmodium falciparum; conditions: 5 μM
# Procedure: (§2) Schizont-stage parasites isolated over Percoll were allowed to invade in the presence of RPMI 1640 containing 10% human serum or in the presence of RPMI 1640 containing 10% human serum and 5 μM PPMP. 1×10^8 infected erythrocytes of the appropriate stage were incubated in 1 ml of RPMI 1640 supplemented with 2mg/ml defatted BSA and 20 μM C5 -DMB-ceramide. Cells were washed and fixed as described in Example 5. Sequential micrographs were taken on a custom made laser confocal microscope at 400 nm intervals along the Z axis. Raw data were processed as described previously.
# Furthermore, the released daughter merozoites enter red cells to form new rings in the continued presence of the drug. This supports the conclusion that the parasite sphingomyelin synthase is essential only to ring and trophozoite-infected red cells in the first 30 to 36 h of intraerythrocytic development.
# To determine whether the parasite specific sphingomyelin synthase activity is required for the development of the TVM, ring-infected erythrocytes inhibited in the enzyme from the onset of intra- erythrocytic development were employed. […] Optical sections obtained by staining with C5 DMB-ceramide were observed. A tubular structure was seen extending from the body of the parasite apparently connected to a larger vesicle in the red cell. In rings formed in the presence of PPMP, the intraerythrocytic structures are seen as discrete domains, separated from each other in all three sections. […] Thus, specific inhibition of the parasite's sphingomyelin biosynthetic activity appears to alter the interconnected "tubovesicular morphology" of the TVM into isolated intraerythrocytic compartments or "vesicles" in ring stage parasites.
# [3] = system: P. yoelii and P. chabaudi; assay: Anti-parasite effect in infected mice; format: in vivo, mouse
# Procedure: Preparation of test compounds, toxicity and pharmacokinetics in mice: PPMP and its derivatives are made up as a stock solution in ethanol, diluted into sterile saline, warmed up to 37° C. and delivered once or several times a day, either intraperitoneally (i.p.) or intravenously (i.v.). The animals are monitored on a daily basis for signs of toxicities which (from mild to extreme) include abnormal grooming behavior, loss or thinning of hair, enlargement of spleen and loss of activity. 0 to 30 micrograms PPMP/per gm of mouse body weight is administered. Effective anti-parasite concentrations of PPMP are predicted to be at ~2 micrograms of PPMP/gm of mouse body weight. Based on preliminary studies, 8-10 micrograms of PPMP per gram of (mouse) body weight have no significant toxicity over 16 days. Compounds and levels found to be non toxic over 30 days will be further tested for their effects on infections of P. yoelii and P. chabaudi.
# Effects of PPMP/other lead compounds on non lethal and lethal strains of P. yoelii and P. chabaudi. Both lethal and non lethal strains of P. yoelii have a 24 h cycle. For both strains, parasites can be injected i.p., with an innoculum of 5×10^5 parasites. […]
# Mice are injected with the inhibitor on day 1. […] On subsequent days the drugs is delivered once a day and the parasitemia is monitored by tail bleeds. […]
# [4] = system: tubovesicular membrane reticulum (TVM) of P. falciparum-infected erythrocytes; assay: Tubovesicular membrane (TVM) morphology, C5-DMB-ceramide labeling, confocal microscopy; format: cell-based; conditions: 5 μM
# Procedure: Serial sections through P. falciparum-infected erythrocytes labeled with C5 -DMB-ceramide (4,4-difluoro-5,7-dimethyl-4-bora-3a,4a-diaza-5-indacene-3-pentanoyl)-sphingosine) 12 h (rings) and 36 h (trophozoites) after invasion.
# as §2
# [5] = system: P. falciparum strain FCB; assay: Inhibition of intraerythrocytic growth in culture, Giemsa staining after 24 h; format: cell-based, Plasmodium falciparum; conditions: Plasmodium falciparum; 5 μM added to 0-12 h rings; Giemsa staining after 24 h; read-out: [%] inhibition of growth
# Text: as §1
smiles,measurement,setting,value
"CCCCCCCCCCCCCCCC(=O)N[C@H](CN1CCOCC1)[C@H](O)c1ccccc1 (relative stereo) [PPMP, dl-threo-1-phenyl-2-palmitoylamino-3-morpholino-1-propanol]",effect on sphingomyelin synthase activity,[1]; 0.05-0.5 μM PPMP,"initial, rapid decrease in the sphingomyelin synthase activity"
same,concentration at which the second pool of enzyme is quantitatively inhibited,[1]; second pool,100 to 500 µM
same,concentration at which the sensitive pool of sphingomyelin synthase is completely inhibited,[1]; sensitive pool,1 to 5 µM
same,effect on schizont maturation and merozoite invasion into erythrocytes,[2],not to block either schizont maturation or merozoite invasion into erythrocytes
same,fate of schizonts greater than 40 h in the cycle,[2],mature and rupture
same,development of rings formed in drug after washing free of the drug,[2]; then washout,developed normally in culture
same,effective anti-parasite concentration (predicted),[3],~ 2 micrograms of PPMP/gm of mouse body weight
same,TVM morphology in rings formed in the presence of drug,[4]; 240 optical sections through 20 cells,markedly devoid of tubular connections
same,intraerythrocytic structures at 36 h in continued presence of drug,[4]; 36 h in the life cycle,remain as isolated spots
same,inhibition at 5 µM,[5],100%
